According to patent US9932300B2, “N,N′-diarylurea compounds and N,N′-diarylthiourea compounds as inhibitors of translation initiation” (President and Fellows of Harvard College, priority 2009, dated 2018):

Test system: eIF2-GTP-Met-tRNAi ternary complex
Test: Ternary complex assay (dual luciferase, firefly/renilla ratio) in stable KLN-tTA/pBISA-DL(ATF-4) cells; HTS and hit confirmation
Assay type: cell-based, mouse
Parameters: Activity 10 uM / Activity 2.5 uM / Activity 5 uM: unit not given here
Details: confirmed hits of the screen (Table 5); for Activity 2.5 uM: compound at 2.5 uM; for Activity 10 uM: compound at 10 uM

| Compound | Activity 2.5 uM | Activity 10 uM |
| --- | --- | --- |
| F[C-](F)C(F)(F)C(F)(F)C(F)(F)C(F)(F)C(F)(F)C(F)(F)F.[CH]1[CH][CH][CH][CH]1.[Co+][I].c1ccc(P(CCP(c2ccccc2)c2ccccc2)c2ccccc2)cc1 [Compound 633992] | 13.09 | – |
| C(=C\P(c1ccccc1)c1ccccc1)/P(c1ccccc1)c1ccccc1.F[C-](F)C(F)(F)C(F)(F)F.F[P-](F)(F)(F)(F)F.[CH]1[CH][CH][CH][CH]1.[Co+2] [Compound 633995] | 14.38 | 11.56 |
| F[C-](C(F)(F)F)C(F)(F)F.[CH]1[CH][CH][CH][CH]1.[Co+][I].c1ccc(P(CCP(c2ccccc2)c2ccccc2)c2ccccc2)cc1 [Compound 633997] | 17.11 | 12.56 |
| F[C-](F)F.[C-]#[O+].[CH]1[CH][CH][CH][CH]1.[Mo].c1ccc(P(CCP(c2ccccc2)c2ccccc2)c2ccccc2)cc1 [Compound 634000] | 1.1 | 12.96 |
| F[C-](C(F)(F)F)C(F)(F)F.F[P-](F)(F)(F)(F)F.[CH]1[CH][CH][CH][CH]1.[Co+2].c1ccc(P(CCP(c2ccccc2)c2ccccc2)c2ccccc2)cc1 [Compound 634014] | 11.17 | 12.92 |
| C[Si](C)(C)c1ccc(CC2(Cc3ccc([Si](C)(C)C)cc3)CCNC2)cc1 [Compound 634157] | 0.8 | 3.99 |
| F[P-](F)(F)(F)(F)F.[Cl][Co+].c1ccc(P(CCP(CCP(c2ccccc2)c2ccccc2)CCP(c2ccccc2)c2ccccc2)c2ccccc2)cc1 [Compound 634838] | 13.01 | 30.9 |
| C[C-]=O.[C-]#[O+].[C-]#[O+].[Mn].c1ccc(P(CCP(c2ccccc2)c2ccccc2)CCP(c2ccccc2)c2ccccc2)cc1 [Compound 634842] | 1.71 | 8.37 |
| c1ccc(P(CC[As](c2ccccc2)c2ccccc2)CC[As](c2ccccc2)c2ccccc2)cc1 [Compound 635022] | 0.96 | 4.8 |
| [Pt].c1ccc(P(CCP(CCP(c2ccccc2)c2ccccc2)CCP(c2ccccc2)c2ccccc2)c2ccccc2)cc1 [Compound 635030] | 1.68 | 71.33 |
| [C-]#[O+].[C-]#[O+].[C-]#[O+].[C-]#[O+].[C-]#[O+].[CH]1[CH][CH][CH][CH]1.[CH]1[CH][CH][CH][CH]1.[Mo].[Mo].c1ccc(P(CCP(c2ccccc2)c2ccccc2)c2ccccc2)cc1 [Compound 635072] | 1.59 | 5.58 |
| CCOC(=O)/C(=C\c1ccc(N(C)C)cc1)[Se]c1ccccc1 [Compound 638113] | 1.87 | 3.17 |
| C/C(=N/O)c1ccc2c(c1)C(=NO)c1cc(/C(C)=N/O)ccc1-2 [Compound 642485] | 1.93 | 3.59 |
| CCOC(=O)C(C(=O)OCC)c1ccc([N+](=O)[O-])o1 [Compound 643139] | – | 7.511 |
| COc1ccc(C2=NN(C(C)=O)c3nc4ccccc4nc3O2)cc1 [Compound 643713] | 2.72 | 4.87 |
| CC1=NN(c2ccccc2)C(=O)C1=C1SCCCS1 [Compound 643762] | 1.99 | 3.47 |
| CCC[CH2][Sn]([CH2]CCC)([CH2]CCC)[O]c1cccccc1=O [Compound 644907] | 4.97 | – |
| Nc1nc2c(N)cc(C(F)(F)F)cc2nc1-c1ccccc1 [Compound 645170] | 3 | 5.1 |
